Where “and” joins values, the source holds several entries; their conditions need not be identical. Equal values may be shown once.
Test system: HCC2302 xenograft
Assay: Mouse efficacy study, tumor volume
Assay type: in vivo
Method: Female C.B-17 SCID (Inbred) mice that weighed 16–20 g were inoculated with 10 million HCC2302 lung adenocarcinoma cells (suspended in a mixture of Hank’s Balanced Salt Solution containing Matrigel at a 1:1 ratio) in the right flank subcutaneously. Tumors were monitored until they reached a mean tumor volume of 110–167 mm^3. The mean tumor volume across all three groups was 141 ± 16.64 mm^3 (mean ± SD) at the initiation of dosing (Study WF-31, n = 10). […] Tumor volumes were measured in two dimensions (length and width) using Ultra Cal-IV calipers. The tumor volume was calculated with the following formula: Tumor size (mm^3) = (longer measurement × shorter measurement^2)/2. Animal body weights were measured using an Adventura scale. Percent weight change was calculated using the following formula: Group percent weight change = (new weight − initial weight)/ initial weight) × 100%.
In a separate study, tumors were monitored until they reached a mean tumor volume of 121–159 mm^3. The mean tumor volume across all three groups was 138 ± 10.26 mm^3 (mean ± SD) at the initiation of dosing (Study WF-34, n = 10).

Cc1ncsc1-c1ccc(C(C)NC(=O)C2CC(O)CN2C(=O)C(c2cc(N3CCC(CN4CCC(OC5CC(Oc6cc(N7C8CCC7CN(c7cc(-c9ccccc9O)nnc7N)C8)ccn6)C5)CC4)CC3)no2)C(C)C)cc1 (centres unmarked) [A947]
Tumor growth inhibition (HCC2302 xenograft, weekly doses of 20 or 40 mg/kg): dose-dependent tumor growth inhibition
Tumor volume (mean) (WF-31, 40 mg/kg IV QW, day 0, 3, 7, 10, 13, 14, 21): 202.88 mm^3 and 192.71 mm^3 and 203.88 mm^3 and 210.27 mm^3 and 204.46 mm^3 and 141.86 mm^3 and 179.41 mm^3

— PMC11099041, “Tissue distribution and retention drives efficacy of rapidly clearing VHL-based PROTACs” (Communications Medicine, 2024)
